Results from patent US20030027210A1, “Alpha synuclein aggregation assays” (priority 2001, published 2003).
Like-named read-outs stand apart in the source and are kept apart here.

Experiments:
[1] = molecular target: alpha synuclein peptide 61-90 (SEQ.ID.No.:3) (Homo sapiens, UniProt P37840); assay: Thioflavin T fluorescence disaggregation assay of aggregated alpha synuclein; format: biochemical
Experimental: Prior to assay, concentrated alpha synuclein peptide 61-90 (SEQ.ID.No.:3) was diluted into assay buffer containing Thioflavin T (20 uM) such that a signal to noise of approximately 5 to 1 was achieved. Rifampicin was maintained in 8% DMSO at a concentration of 2 mM. To break up super aggregates, the solution was sonicated using a Heat System sonicator with a microprobe. The samples were sonicated in 30 ml volume in a Coming 50 ml centrifuge tube for 25, 3 second bursts. The assay was run in LJL HE (LJL Biosystems) plates as follows: 18 μl of alpha synuclein/thioflavin T mixture was added to the well followed by 2 μl of a 30% DMSO or by rifampicin diluted in 30% DMSO. As a control, buffer with thioflavin T was added to separate wells in the absence of alpha synuclein. The samples were incubated at room temperature for the times indicated in FIG. 1 and were then read on the LJL reader using wavelengths of 440 nm and 485 nm.
To test the effect of incubation times on disaggregation of alpha synuclein, alpha synuclein was incubated with a rifampicin concentration curve ranging from 0.1 μM to 100 μM for 2 and 5 hours. The data are the mean of 11 samples±the standard deviation at each time point.
The signal to background are from quadruplicate samples of buffer (low value) and alpha synuclein/TFT buffer (high value). The EC50 were generated from 11 samples of each time point.
To narrow down the incubation times as well as to identify the concentrations of rifampicin to use, the above study was repeated using incubation times ranging from 5 minutes to 2 hours and rifampicin concentrations of 1.56 μM to 15 μM.

[2] = molecular target: T1, alpha synuclein protein (Homo sapiens, UniProt P37840); assay: Thioflavin T alpha-synuclein aggregation assay with or without seeding; format: biochemical; settings: peptide used for seeding; Thioflavin T fluorescence
T1 construct: made in house; host or cells: E. coli ER2566
Experimental: A fluorescence-based TFT high-throughput screening assay was developed for the a-synuclein aggregation. Thioflavin T absorbs at 450 nm and emits at 485 nm; fluorescence increases 40-fold in the presence of beta-sheet conformation (LeVine and Scholten). Thioflavin T was obtained from Fluka Chemika. Twenty four micrograms (24 μg) of alpha synuclein protein in assay buffer (0.2 M potassium chloride pH=6; 0.075% sodium azide) was added to microvolume multiwell plate holding 10 μL. Then, Thioflavin T (TFT) was added to each well to a final concentration of 20 μM and contents were thoroughly mixed. Alpha-synuclein was allowed to fully aggregated prior to conducting a dissaggregation assay. Degree of aggregation was measured by increase in Thioflavin T fluorescence. Alpha-synuclein aggregation was conducted with or without seeding (using a peptide to enhance the rate of aggregation).
Alpha synuclein aggregates through the formation of a beta sheet structure, measured by increased fluorescence of Thioflavin T at 485 nm.

EC50 ([1]; incubation time 15 minutes, rifampicin 1.56 μM to 15 μM, read-out: EC50 for Rifampicin to disaggregate alpha synuclein) [µM]	EC50 ([1]; incubation time 30 minutes, rifampicin 1.56 μM to 15 μM, read-out: EC50 for Rifampicin to disaggregate alpha synuclein) [µM]	EC50 ([1]; incubation time 60 minutes, rifampicin 1.56 μM to 15 μM, read-out: EC50 for Rifampicin to disaggregate alpha synuclein) [µM]	EC50 ([1]; incubation time 2 hours, rifampicin 0.1 μM to 100 μM, room temperature, read-out: Rifampicin EC50) [µM]	EC50 ([1]; incubation time 120 minutes, rifampicin 1.56 μM to 15 μM, read-out: EC50 for Rifampicin to disaggregate alpha synuclein) [µM]	EC50 ([1]; incubation time 5 hours, rifampicin 0.1 μM to 100 μM, room temperature, read-out: Rifampicin EC50) [µM]	effect of seeding peptide on rate of synuclein aggregation [2]	Molecule
311	76	16.8	23.9	10.6	21		CO[C@H]1/C=C/O[C@@]2(C)Oc3c(C)c(O)c4c(O)c(c(/C=N/N5CCN(C)CC5)c(O)c4c3C2=O)NC(=O)/C(C)=C\C=C\[C@H](C)[C@H](O)[C@@H](C)[C@@H](O)[C@@H](C)[C@H](OC(C)=O)[C@@H]1C [Rifampicin]
						speed up synuclein aggregation	EQVTNVGGAVVTGVT [syn 61-75, synthetic peptide of residues 61 to 75 of human alpha synuclein, enhances rate of aggregation]
